In patent publication US20230346809A1, “USE OF CANNABIDIVARIN IN THE TREATMENT OF SEIZURES ASSOCIATED WITH RARE EPILEPSY SYNDROMES RELATED TO GENETIC ABNORMALITIES” (GW Research Limited, priority 2020, published 2023):
“Also recorded” adds a separate entry of the source.

What was measured:
[1] = system: patients with Dravet and Lennox-Gastaut syndrome; settings: purified pharmaceutical formulation of CBD; three trials; cited from earlier work
[2] = system: seizures associated with Rett syndrome; test: Open label, phase I trial of CBDV in patients diagnosed with Rett syndrome (caregiver seizure diary); assay type: in vivo, human; set-up: Mean seizure frequency reduction: concentration or dose not given beside the values; settings: for Mean seizure frequency reduction: versus baseline
Source text: Example 1 below describes the use of a botanically derived purified CBDV in an open label, phase I trial to investigate the clinical efficacy and safety of purified pharmaceutical cannabidivarin formulation (CBDV) in the treatment of patients diagnosed with Rett syndrome.
Subjects were required to be on one or more AEDs at stable doses for a minimum of 4 weeks prior to baseline. Subjects had to have been diagnosed with intractable epilepsy: failed adequate trial of two, or more, standard anticonvulsants, and four or more quantifiable seizures less than 8 weeks prior to screening, and two or more quantifiable seizures in prospective baseline phase.
Patients were administered botanically derived purified CBDV in a 50 mg/mL sesame oil-based solution which was titrated to an initial dose of 2.5 milligrams per kilogram per day (mg/kg/day). Doses were then increased to a goal of 10 mg/kg/day.
There were five patients in this study, and each received CBDV for various durations of time. Modifications were made to concomitant AEDs as per clinical indication.
Seizure frequency, intensity, and duration were recorded by caregivers in a diary during a baseline period of at least 28 days. Changes in seizure frequency relative to baseline were calculated after at least 2 weeks and at defined timepoints of treatment.
Patients may be defined as responders if they had more than 50% reduction in seizure frequency compared to baseline. The percent change of seizure frequency for the end of the treatment period was calculated as follows: […]

[3] = system: mouse model of Rett syndrome; settings: cited from earlier work
[4] = system: pilocarpine-induced seizures; settings: CBDV alone; Hill et al. 2012; cited from earlier work
[5] = system: methyl-6, 7-dimethoxy-4-ethyl-beta-carboline-3-carboxylate (DMCM) model; settings: postnatal day 10 animals; cited from earlier work
[6] = system: maximal electroshock model; settings: postnatal day 10 animals; cited from earlier work
[7] = system: MeCP2 KO mouse model of Rett Syndrome; settings: WO 2017/178807; cited from earlier work
[8] = Patient 1, total over 14 months of CBDV, baseline 0
[9] = Patient 2, total over 11 months of CBDV, baseline 0
[10] = Patient 3, total over 12 months of CBDV, baseline 0
[11] = Patient 4, total over 12.5 months of CBDV, baseline 0
[12] = Patient 5, total over 11 months of CBDV, baseline 0

In the case of `C=C(C)[C@@H]1CCC(C)=C[C@H]1c1c(O)cc(CCCCC)cc1O` [CBD, Cannabidiol], the “Efficacy in randomized control trials” value [1] is listed as “showed efficacy”.
With `C=C(C)[C@@H]1CCC(C)=C[C@H]1c1c(O)cc(CCC)cc1O` [CBDV, cannabidivarin] the “Mean seizure frequency reduction” value ([2]; Patient 1, 14 months of CBDV) was 52.5%, the Total seizure frequency ([2]; Patient 1, 14 months of CBDV, baseline 32.0/month) was 15.2/month and the “Focal seizures with impairment, Non-motor: seizure count” value [2, 8] was 2 /14 months. For the same compound, the “Generalised seizures, Motor other: seizure count” value (shortened to “Generalised seizures, Motor other”) [2, 8] was 8 /14 months, the “Generalised seizures, Motor tonic-clonic: seizure count” value [2, 8] was 0 /14 months and the “Non-motor: seizure count” value [2, 8] was 0 /14 months. The “Other: seizure count” value [2, 8] was 1 /14 months, the “Unknown onset, Motor other: seizure count” value (“Unknown onset, Motor other” for short) [2, 8] was 3 /14 months and the “Unknown onset, Motor tonic-clonic: seizure count” value (“Unknown onset, Motor tonic-clonic” for short) [2, 8] was 7 /14 months. The “Focal seizures with impairment, Motor: seizure count” value ([2]; Patient 1, total over 14 months of CBDV, baseline 32) was 192 /14 months, the “Mean seizure frequency reduction” value ([2]; Patient 2, 11 months of CBDV) was 79.4% and the Total seizure frequency ([2]; Patient 2, 11 months of CBDV, baseline 35.0/month) was 7.2/month. The “Focal seizures with impairment, Motor: seizure count” value [2, 9] was 0 /11 months, the “Generalised seizures, Motor other” value [2, 9] was 0 /11 months and the “Generalised seizures, Motor tonic-clonic: seizure count” value [2, 9] was 0 /11 months. For the same compound, the “Non-motor: seizure count” value [2, 9] was 0 /11 months, the “Unknown onset, Motor other” value [2, 9] was 0 /11 months and the “Unknown onset, Motor tonic-clonic” value [2, 9] was 0 /11 months. The “Other: seizure count” value ([2]; Patient 2, total over 11 months of CBDV, baseline 3) was 18 /11 months, the “Focal seizures with impairment, Non-motor: seizure count” value ([2]; Patient 2, total over 11 months of CBDV, baseline 32) was 61 /11 months and the “Mean seizure frequency reduction” value ([2]; Patient 3, 12 months of CBDV) was 90.0%. For the same compound, the Total seizure frequency ([2]; Patient 3, 12 months of CBDV, baseline 6.0/month) was 0.6/month, the “Focal seizures with impairment, Non-motor: seizure count” value [2, 10] was 0 /12 months and the “Generalised seizures, Motor other” value [2, 10] was 0 /12 months. The “Non-motor: seizure count” value [2, 10] was 0 /12 months, the “Other: seizure count” value [2, 10] was 0 /12 months and the “Unknown onset, Motor other” value [2, 10] was 0 /12 months. For the same compound, the “Unknown onset, Motor tonic-clonic” value [2, 10] was 0 /12 months, the “Focal seizures with impairment, Motor: seizure count” value ([2]; Patient 3, total over 12 months of CBDV, baseline 1) was 3 /12 months and the “Generalised seizures, Motor tonic-clonic: seizure count” value ([2]; Patient 3, total over 12 months of CBDV, baseline 5) was 4 /12 months. For the same compound, the “Mean seizure frequency reduction” value ([2]; Patient 4, 12.5 months of CBDV) was 5.7%, the Total seizure frequency ([2]; Patient 4, 12.5 months of CBDV, baseline 7.0/month) was 6.6/month and the “Focal seizures with impairment, Non-motor: seizure count” value [2, 11] was 0 /12.5 months. The “Generalised seizures, Motor tonic-clonic: seizure count” value [2, 11] was 0 /12.5 months, the “Non-motor: seizure count” value [2, 11] was 0 /12.5 months and the “Other: seizure count” value [2, 11] was 6 /12.5 months. For the same compound, the “Unknown onset, Motor other” value [2, 11] was 0 /12.5 months, the “Unknown onset, Motor tonic-clonic” value [2, 11] was 0 /12.5 months and the “Focal seizures with impairment, Motor: seizure count” value ([2]; Patient 4, total over 12.5 months of CBDV, baseline 3) was 73 /12.5 months. For the same compound, the “Generalised seizures, Motor other” value ([2]; Patient 4, total over 12.5 months of CBDV, baseline 4) was 4 /12.5 months, the “Mean seizure frequency reduction” value ([2]; Patient 5, 11 months of CBDV) was 98.1% and the Total seizure frequency ([2]; Patient 5, 11 months of CBDV, baseline 371.0/month) was 7.2/month. For the same compound, the “Focal seizures with impairment, Motor: seizure count” value [2, 12] was 0 /11 months, the “Focal seizures with impairment, Non-motor: seizure count” value [2, 12] was 0 /11 months and the “Non-motor: seizure count” value [2, 12] was 6 /11 months. For the same compound, the “Other: seizure count” value [2, 12] was 0 /11 months, the “Unknown onset, Motor tonic-clonic” value [2, 12] was 0 /11 months and the “Generalised seizures, Motor other” value ([2]; Patient 5, total over 11 months of CBDV, baseline 18) was 18 /11 months. The “Generalised seizures, Motor tonic-clonic: seizure count” value ([2]; Patient 5, total over 11 months of CBDV, baseline 25) was 38 /11 months, the “Unknown onset, Motor other” value ([2]; Patient 5, total over 11 months of CBDV, baseline 328) was 17 /11 months and the “Decrease of seizure frequency rates, maximum” value ([2]; across listed seizure types) was “up to 98%”. The “Reduction in seizures over the period of treatment, range over patients” value ([2]; all five patients, 11-14 months of CBDV) was 5.7-98.1%, the “Patients with more than 50% reduction in seizure frequency compared to baseline (responders)” value ([2]; five patients) was “four of the five patients” and the “Patients with more than 75% reduction in seizure frequency compared to baseline” value ([2]; five patients) was “three”. For the same compound, the “Effect on number of seizures associated with Rett syndrome” value ([2]; five patients, open label) was “significantly reduce the number of seizures”, the “Effect on frequency of seizure types” value ([2]; focal motor/non-motor with impairment, generalised motor/non-motor, unknown onset motor, non-motor and other types) was “effective in reducing the frequency of all seizure types; also recorded: significant reduction in specific seizure types” and the “Patients with focal seizures with impairment who experienced a reduction in their seizures” value ([2]; four patients (patient 1-4) suffered from focal seizures with impairment) was “three (patients 1-3) of these patients experienced a reduction”. The “Patients with generalised seizures who experienced a reduction in these seizures” value ([2]; three patients (patients 3-5) suffered from generalised seizures) was “all three experienced a reduction”, the Behavioural alterations ([3]; reference 2) was “rescue the behavioural alterations” and the Memory deficits ([3]; reference 3) was “rescued memory deficits”. For the same compound, the “Neurological and motor defects” value ([3]; reference 3) was “delayed the appearance of neurological and motor defects”, the “Effect on pilocarpine-induced seizures” value [4] was “did not have any effect” and the Seizure suppression [5] was “did not suppress seizures”. For the same compound, the Seizure suppression [6] was “did not suppress seizures”, the Bodyweight and survival [7] was “reduce the decrease in bodyweight and survival” and the “General condition and symptoms of mobility and breathing” value [7] was “improved general condition and symptoms of mobility and breathing”.
